Source: patent US20060211725A1, “Use” (Astellas Pharma Inc., priority 2002, published 2006)

Tests used:
Assay type in all cases: in vivo, rat
[1] = test system: F344 kidney allograft in LEW recipient rats; experiment: Kidney allograft survival, treatment with brief tacrolimus (Example 4); conditions: Tacrolimus 1 mg/kg PO, 0-9 day, alone
Procedure: (§1) The rats and kidney transplantation methods described in Example 1 were used. Tacrolimus at dose of 1 mg/kg from day 0 to day 9 after transplantation, and the compound (I) at doses of 10 mg/kg and 15 mg/kg from day 28 today 60 after transplantation were administered orally to recipient rats. In this study LEW recipients were briefly treated with oral tacrolimus at 1 mg/kg/day for 10 days after transplantation to avoid acute rejection and slow chronic rejection that gradually destroys the F344 kidney graft, resulting in functional and histological changes similar to the chronic rejection in human. The isograft, untreated allograft and allograft treated with tacrolimus 1 mg/kg for 10 days alone served as control groups. Blood and urine samples were collected once a week from recipients with kidney grafts described in Example 1 for measuring their plasma creatinine and proteinuria. Plasma creatinine was tested by Sigma Creatinine Kit and proteinuria by Bio-Rad Protein assay.

[2] = test system: F344 kidney allograft in LEW recipient rats; experiment: Recipient kidney function, treatment with brief tacrolimus (Example 4); conditions: brief dose of tacrolimus 1 mg/kg day 0-9 alone; allograft control week 7
Procedure: as §1

[3] = test system: F344 kidney allograft in LEW recipient rats; experiment: Kidney allograft survival, combination with tacrolimus (Example 2); conditions: Tacrolimus 1 mg/kg PO, 0-90 day, alone
Procedure: The rats and kidney transplantation methods described in Example 1 were used. The compound (I) at dose of 3 mg/kg and tacrolimus at dose of 1 mg/kg, were administered orally to recipient rats daily for 90 days after transplantation. The isograft, untreated allograft, and allograft treated with tacrolimus 1 mg/kg for 90 days alone served as control groups.

C=CC[C@@H]1/C=C(\C)C[C@H](C)C[C@H](OC)[C@H]2O[C@@](O)(C(=O)C(=O)N3CCCC[C@H]3C(=O)O[C@H](/C(C)=C/[C@@H]3CC[C@@H](O)[C@H](OC)C3)[C@H](C)[C@@H](O)CC1=O)[C@H](C)C[C@@H]2OC [Tacrolimus, tacrolimus]
Survival day ([1]; n=5): >90 days | Survival rate ([1]; untreated allograft 40%): 100% | week post transplantation after which plasma creatinine increased rapidly [2]: 8 week | Survival day ([3]; n=4): >90 days | Survival rate (90 days) ([3]; untreated allograft 40%): 100%
